Results on nine molecules are retold here after article PMC10415494, “Ga(III) pyridinecarboxylate complexes: potential analogues of the second generation of therapeutic Ga(III) complexes?” (Journal of Biological Inorganic Chemistry, 2023).

In data set [1] the test system is Rhizopus oryzae (R. oryzae) CCM F-8284. Put plainly: Growth of filamentous fungi, macrodilution method on solidified PDA (colony diameter). The data set is classed as cell-based. Particulars: solidified potato-dextrose growth medium; read-out: IC50 R. oryzae. As to the method:
(§1) The antimicrobial activities of gallium(III) complexes GaPic, GaDpic, GaChel, GaCldpic, free ligands (HPic, H2Dpic, H2Chel, H2Cldpic) and positive controls (cefoxitin (C), ampicillin (A) and piperacillin (P)) were evaluated by macrodilution method using G^+ bacteria (Firmicutes) Staphylococcus aureus (S. aureus) CCM 3953 (Czech Collection of Microorganisms), G^− bacteria (γ-proteobacteria) Escherichia coli (E. coli) CCM 3988, Pseudomonas aeruginosa (P. aeruginosa) CCM 1959 (Czech Collection of Microorganisms) and the yeast Candida parapsilosis (C. parapsilosis) ATCC 22019 (American type culture collection). Cultures of bacteria (in Mueller–Hinton broth, MHB) and yeasts (in Sabouraud’s growth medium, SB) were incubated under shaking (250 rpm) at 37 °C. The growth of bacteria and yeasts was evaluated by measuring the absorbance of the growing cultures (A590) until the cultures reached the stationary growth phase. The effects of gallium(III) complexes on the growth of filamentous fungi Rhizopus oryzae (R. oryzae) CCM F-8284, Alternaria alternata (A. alternata) CCM F-128 and Microsporum gypseum (M. gypseum) CCM F-8342 (Czech Collection of Microorganisms) were observed by macrodilution method on solidified potato-dextrose growth medium (PDA). During culturing, the diameters of growing fungal colonies were measured at regular intervals. Briefly, the antimicrobial activity (bacteria and yeasts) gallium(III) complexes/ ligands were added to the microbial culture at the beginning of the cultivation-to the lag phase. Pure gallium(III) complexes/ligands were dissolved in DMSO. The final concentration of DMSO never exceeded 1.0 vol. % neither in control nor treated samples. Concentration of gallium(III) complexes used in experimental work for evaluation of antimicrobial activity was used in the range of 0.05–2 mM, for the free ligands in the range of 0.5–2.0 mM in all experiments. […] The IC50 values were evaluated from toxicity curves. All the obtained results of antimicrobial activity were compared to the activity of Ga(NO3)3.

The test system of data set [2] is Alternaria alternata (A. alternata) CCM F-128. Described as above. The data set is classed as cell-based. The settings on record: Filamentous fungi; solidified potato-dextrose growth medium; read-out: IC50 A. alternata. As to the method:
as §1

Data set [3] concerns Microsporum gypseum (M. gypseum) CCM F-8342. The data set is described as above. The data set is classed as cell-based. Particulars: Filamentous fungi; solidified potato-dextrose growth medium; read-out: IC50 M. gypseum. As to the method: as §1
For data set [4], the system named is Candida parapsilosis (C. parapsilosis) ATCC 22019. Put plainly: Antimicrobial activity, macrodilution method (yeast, growth by A590). The settings on record: Yeast; Sabouraud's growth medium, 37 °C; read-out: IC50 C. parapsilosis. It is filed as cell-based. As to the method: as §1
Data set [5] has as its system Pseudomonas aeruginosa (P. aeruginosa) CCM 1959. Put plainly: Antimicrobial activity, macrodilution method (growth by A590). It is filed as cell-based. Particulars: for IC50: Bacteria, MHB, 37 °C, DMSO max 1.0 vol. %, read-out: IC50 P. aeruginosa. As to the method: as §1
For data set [6], the system named is Staphylococcus aureus (S. aureus) CCM 3953. The description is as above. The data set is classed as cell-based. Particulars: for IC50: Bacteria, MHB, 37 °C, DMSO max 1.0 vol. %, read-out: IC50 S. aureus. As to the method: as §1
Data set [7] relates to Escherichia coli (E. coli) CCM 3988. The data set is described as above. The data set is classed as cell-based. Particulars: for IC50: Bacteria, MHB, 37 °C, DMSO max 1.0 vol. %, read-out: IC50 E. coli. As to the method:
as §1

A short description of data set [8]: Complex stability in biological testing medium by time-dependent 1H NMR. The data set is classed as physicochemical. The settings on record: 300 K, over 96 h. As to the method: Nuclear magnetic resonance (NMR) data were collected on a Varian VNMRS 600 spectrometer operating at 599.87 MHz for ^1H. The concentration of all samples was approximately 3 mg/0.6 mL of 1% DMSO-d6/D2O. For comparison, the spectra of pure acids were also measured, while the pH of the solution of acids was adjusted to the same value as the solution of the complexes. The chemical shifts were referenced to the TSP (3-(trimethylsilyl)propionic-2,2,3,3-d4 acid sodium salt) peak (^1H NMR 0.00 ppm). The NMR data were recorded at 300 K, with chemical shifts δ reported in parts per million and coupling constants J in Hertz. All data were analysed using MestReNova 12.0.0 (2017) software. The stability in 1% DMSO-d6/D2O was determined for all samples. […]

The test system of data set [9] is HeLa (human cervical adenocarcinoma). Put plainly: MTS antiproliferative assay. As to the method:
(§2) Cell culture the cell lines A2058 (human metastatic melanoma), BLM (human metastatic melanoma), HCT116 (human colorectal carcinoma), HeLa (human cervical adenocarcinoma), Jurkat (human leukaemic T cell lymphoma). […] Cells were maintained in standard conditions with an atmosphere containing 5% CO2 at 37 °C.
(§3) The antiproliferative activity of Ga(III) complexes GaPic, GaDpic, GaChel, GaCldpic, free ligands (HPic, H2Dpic, H2Chel, H2Cldpic) and cisplatin (cisPt) were evaluated by colorimetric microculture MTS (3-(4,5-dimethylthiazol-2-yl)-5-(3-carboxymethoxyphenyl)-2-(4-sulfophenyl)-2H tetrazolium) assay (Promega, Madison, WI, USA). Cancer and non-cancer cells were seeded at density 5 × 10^3 cells/well in 96-well polystyrene microplates. Twenty-four hours after cell seeding, different concentrations (1.0—100.0 µM) of the compounds were tested. After 72 h of incubation, 10 µL of MTS was added to each well. After an additional 2 h, cell proliferation was evaluated by measuring of absorbance at wavelength 490 nm using the automated Cytation™ 3 Cell Imaging Multi-Mode Reader (Biotek, Winooski, VT, USA). The absorbance of control wells was taken as 100%, and the results were expressed as a percent of untreated control. IC50 values were calculated from MTS analyses.
For orientation: Formazan colour is commonly taken as a measure of viable cells.

Data set [10] relates to MDA-MB-231 (human mammary gland adenocarcinoma). Put plainly: MTS antiproliferative assay. As to the method:
as §2, §3

For data set [11], the system named is PaTu 8902 (human pancreatic adenocarcinoma). The data set can be described thus: MTS antiproliferative assay. As to the method:
as §2, §3

The test system of data set [12] is A2058 (human metastatic melanoma). The data set can be described thus: MTS antiproliferative assay. As to the method:
as §2, §3

For data set [13], the system named is HCT116 (human colorectal carcinoma). Put plainly: MTS antiproliferative assay. As to the method: as §2, §3
In data set [14] the test system is Jurkat (human leukaemic T cell lymphoma). Put plainly: MTS antiproliferative assay. As to the method: as §2, §3
Data set [15] deals with human dermal fibroblasts (HDF). The data set can be described thus: in vitro. As to the method:
as §2, §3

The procedure of data set [16]: The stock solution of HPic and H2Dpic was prepared by dissolving in demineralized water (c(ligand) = 0.02 M). The gallium(III) ion solution was prepared from anhydrous gallium(III) nitrate (c(Ga^3+) = 0.05 M) and was standardized by back titration of excess of EDTA with zinc(II). Decarbonated potassium hydroxide solution (approx. 0.2 M) was used as a titrant that was standardized by potassium hydrogen phthalate (c(KHP) = 0.1 M). Standard inert electrolyte of nitric acid was used in all titrations (c(HNO3) = 0.03 M, I(HNO3/KNO3) = 0.1 M). Potentiometric measurements were carried out using a TitroLine 7000 dosage system with a BlueLine combination electrode (SI Analytics) in a glass vessel (5 mL) thermostated at 25 ± 0.1 °C at an ionic strength I(KNO3) = 0.1 M. Inert atmosphere was ensured by a constant flow of a nitrogen gas. Precise calibration of the electrode was carried out by the titration of 0.03 M HNO3 with 0.2 M KOH in the range –log[H^+] = 1.8–12.0, with the pH-meter yielding E values. The relation between E and –log[H^+] is expressed by Eq. (1) where the term E^0 contains the standard potentials of the electrode and the contribution of inert ions to the liquid-junction potential. The value S corresponds to the Nernstian slope, the value of which should be close to the theoretical value, and j1[H^+] and j2[OH^–] = j2Kw/[H^+] are contributions of the H^+ and OH^– ions, respectively, to the liquid-junction potential. The pKw value was 13.78 in Eq. (1).1 E=E^0-S-logH^++j1H^++j2Kw/H^+
The parameters j1 and j2 cause deviation from linear dependence between E and –log[H^+] only in strongly acidic and strongly alkaline solutions. The picolinic and dipicolinic acid protonation constants were determined with ligand concentration 0.004 M. The stability constants in the Ga-HPic and Ga-H2Dpic binary system were determined by the ligand concentrations 0.004 and the Ga^3+ concentration was 0.004, 0.002 and 0.001 M in dependence on the ligand to metal ratio.
The protonation constants β110, β210 are the concentration constants and are defined by β110 = [HL]/ [H][L], β210 = [H2L]/ [H]^2[L] (pK2 = logβ110, pK1 = logβ210- logβ110); the stability constants are defined by βrqp = [HrLqMp]/[H]^r[L]^q[M]^p. The equilibrium constants were obtained by fitting the titration data with OPIUM [23]. The following hydrolysis constants were used for the calculations: βpr = [Mp(OH)r^3−r][H]^r/[M]^p; log β11 = − 2.74; log β12 = − 7.0; log β13 = − 11.96; log β14 = − 15.52 [24].

≈ marks a conversion by molar mass, not a printed value. Where two headings read alike, the source gives them in different places.

What is called IC50 is the concentration that inhibits the measured activity by half. For the molecule `O=[N+]([O-])[O-].O=[N+]([O-])[O-].O=[N+]([O-])[O-].[Ga+3]` [Ga(NO3)3, gallium(III) nitrate], the IC50 in data set [1], in data set [2], in [3], in data set [4], in data set [5] and in data set [6] was greater than 500 µM throughout. Also, the IC50 in data set [7] is greater than 500 µM.
For the molecule `O.O.O.O.O.O.O=C([O-])c1cc(O)cc(C(=O)[O-])n1.O=C([O-])c1cc(O)cc(C(=O)[O-])n1.[Ga+3].[Ga+3].[OH-].[OH-]` [GaChel, [Ga(Chel)(H2O)(OH)]2·4H2O], the IC50 is greater than 2000 µM in data set [1]; greater than 2000 µM in data set [2]; greater than 2000 µM in data set [3]; greater than 2000 µM in data set [4]; 1410 ± 155 µM in data set [9]; 199 ± 45.6 µM in data set [10]. The IC50 worked out at 610 ± 54 µM in [11]; 415 ± 4 µM in [12]; 406 ± 86.8 µM in data set [13]; 418 ± 100 µM in [14]; 347 ± 25.5 µM in [15]; 500 µM in [5]. In addition, the IC50 in data set [6] is 2000 µM; in [7], greater than 2000 µM. Further, the “stability in 1% DMSO-d6/D2O solution” value in data set [8] was “stable”. Besides, the “MIC100 (MIC) P. aeruginosa” value in [5] (growth fully inhibited (100%)) was determined as 1000 µM. Also, in data set [6] (complex at 2 mM), the “inhibition of S. aureus growth” value stood at 50%. Also, the “partial inhibition of E. coli growth” value in data set [7] (concentration not given) came out at 9%.
Turning to `O=C([O-])c1cccc(C(=O)[O-])n1.O=C([O-])c1cccc(C(=O)[O-])n1.[Ga+3].[OH-]` [[Ga(Dpic)2(OH)]^2−], the “stability constant logβ-121” value in data set [16] is given as 11.08(4).
As for `O=C([O-])c1cccc(C(=O)[O-])n1.O=C([O-])c1cccc(C(=O)[O-])n1.[Ga+3]` [[Ga(Dpic)2]^−], the “stability constant logβ021” value in data set [16] is reported as 15.42(9).
Same read-out and setting: the figure for `O=C([O-])c1ccccn1.O=C([O-])c1ccccn1.[Ga+3]` [[Ga(Pic)2]^+] is 16.23(6).
For `O=C([O-])c1ccccn1.O=C([O-])c1ccccn1.O=C([O-])c1ccccn1.[Ga+3]` [[Ga(Pic)3]], the “stability constant logβ031” value in [16] is on record as 20.86(2).
Regarding `CO[C@@]1(NC(=O)Cc2cccs2)C(=O)N2C(C(=O)O)=C(COC(N)=O)CS[C@@H]21` [cefoxitin], the MIC in [6] (Staphylococcus aureus, CCM3953, positive control, read-out: MIC100 for S. aureus) came out at 0.74 µM (≈ 0.316 µg/mL).
Take `N.N.[Cl][Pt][Cl]` [cisPt, cisplatin]: the half-inhibitory concentration (IC50) is 35.4 ± 3.4 µM in data set [9] (read-out: Cytotoxic activity IC50 HeLa, MTS, 72 h of incubation); 7.1 ± 0.3 µM in [10] (read-out: Cytotoxic activity IC50 MDA-MB-231, MTS, 72 h of incubation); 12.9 ± 0.9 µM in data set [11] (read-out: Cytotoxic activity IC50 PaTu 8902, MTS, 72 h of incubation); 17.6 ± 1.2 µM in data set [12] (read-out: Cytotoxic activity IC50 A2058, MTS, 72 h of incubation); 7.4 ± 0.8 µM in data set [13] (read-out: Cytotoxic activity IC50 HCT116, MTS, 72 h of incubation); 6.3 ± 0.5 µM in [14] (read-out: Cytotoxic activity IC50 Jurkat, MTS, 72 h of incubation). Besides, in [15] (read-out: Cytotoxic activity IC50 HDF, MTS, 72 h of incubation), the IC50 worked out at 40.1 ± 2.8 µM.
As for `CCN1CCN(C(=O)N[C@@H](C(=O)N[C@@H]2C(=O)N3[C@@H]2SC(C)(C)[C@@H]3C(=O)O)c2ccccc2)C(=O)C1=O` [piperacillin], in data set [5] (Pseudomonas aeruginosa, CCM1959, positive control, read-out: MIC100 for P. aeruginosa), the MIC was 5.81 µM (≈ 3.01 µg/mL).
